For assay [1], the target named is T1, rat prostate estrogen receptor (ERβ containing cytosol) (Rattus norvegicus, UniProt Q62986).
T1 construct: Receptor containing cytosol was prepared from rat prostate (ERβ containing cytosol); from tissue; host or cells: rat prostate cytosol
The assay is described as follows: Estrogen receptor binding, competition with [3H]-estradiol, rat prostate cytosol (compared with rat uterus cytosol). The conditions noted are these: rat prostate cytosol (ERβ) vs rat uterus cytosol (ERα). The procedure:
The binding affinity of 8β-Vinyl-estra-1,3,5(10)-trien-3,17β-diol and 17β-Fluor-9α-vinyl-estra-1,3,5(10)-trien-3,16α-diol was determined by competition experiments using [3H]-estradiol as a ligand. Receptor containing cytosol was prepared from rat prostate (ERβ containing cytosol) and rat uterus (ERα containing cytosol).
The preparation of rat uterus cytosol and the binding study were performed as described (Stack, Gorski 1985, Endocrinology 117, 2024-2032) with some modifications as described by Fuhrmann et al. (Fuhrmann U. et al. 1995, Contraception 51: 45-52).
The preparation of rat prostate cytosol and the binding study was performed as described (Testas J. et al., 1981, Endocrinology 109: 1287-1289).

The target of the next assay is T2, human ERβ (Homo sapiens, UniProt Q92731).
T2 construct: host or cells: Baculovirus/SF-9 expression system
T2 sequence (Q92731 whole entry): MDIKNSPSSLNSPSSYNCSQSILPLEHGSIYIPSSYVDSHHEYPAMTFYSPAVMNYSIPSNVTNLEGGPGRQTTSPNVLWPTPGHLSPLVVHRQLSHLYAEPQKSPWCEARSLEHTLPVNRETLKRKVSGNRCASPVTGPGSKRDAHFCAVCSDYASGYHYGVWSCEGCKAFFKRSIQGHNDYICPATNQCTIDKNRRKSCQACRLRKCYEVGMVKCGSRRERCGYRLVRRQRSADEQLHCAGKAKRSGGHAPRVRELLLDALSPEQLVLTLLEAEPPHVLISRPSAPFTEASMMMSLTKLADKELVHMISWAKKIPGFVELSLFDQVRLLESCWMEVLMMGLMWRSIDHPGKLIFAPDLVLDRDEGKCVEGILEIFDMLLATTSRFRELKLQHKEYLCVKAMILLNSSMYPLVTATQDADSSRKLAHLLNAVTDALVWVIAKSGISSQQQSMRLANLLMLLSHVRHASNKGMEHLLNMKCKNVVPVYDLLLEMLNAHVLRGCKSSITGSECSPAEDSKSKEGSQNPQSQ
Briefly: Binding to human estrogen receptors expressed by the Baculovirus/SF-9-expression system. The conditions noted are these: human receptors expressed by Baculovirus/SF-9-expression system.

In assay [2] the test system is spontaneously hypertensive rats (SHR). The assay is described as follows: In vivo hemodynamics in ovariectomized spontaneously hypertensive rats (SHR). Also noted: species or system rat. The conditions noted are these: for cardiac output: FIG. 4; for blood pressure / effectiveness in lowering blood pressure relative to estradiol and the ERα agonist: ovx SHR, FIG. 3; for blood pressure: compared to vehicle treated (placebo) animals; for effectiveness in lowering blood pressure relative to estradiol and the ERα agonist: 30 μg/kg/d vs estradiol 2 μg/kg/d and ERα agonist 30 μg/kg/d. An excerpt:
The effects of the ERβ-agonists on blood pressure (BP) in ovariectomized SHR, a widely accepted animal model of hypertensive heart disease, were investigated in three independent studies. Estradiol and the steroidal ERα agonist 3,17β-Dihydroxy-19-nor-17α-pregna-1,3,5(10)-triene-21,16α-lactone were used as references. Female spontaneously hypertensive rats (SHR-Nico; 12 weeks old; Charles River Laboratories) were used for the experiment. All animals were kept under standard conditions (eg 12 hr ON/OFF light cycle, commercial diet and water ad libitum). Animals were randomly assigned to different treatment groups as outlined below. All animals were marked individually by ear tag. Female rats (SHR; 12 weeks old) were ovarectomized (ovx) and treated for 4 weeks starting one day after ovx according to the protocol outlined below. All compounds were injected daily using ethanol (EtOH)/peanut oil 4+1 as the vehicle. [table] 12 weeks old female SHR (Charles River™) were ovariectomized or sham-operated. Starting one day after ovariectomy animals were randomly selected for a daily subcutaneous injection of 17β-estradiol (E2, 2 μg/kg body weight/d), the selective ERα agonist 3,17β-Dihydroxy-19-nor-17α-pregna-1,3,5(10)-triene-21,16α-lactone (WO 02/26763) (30 μg/kg body weight/d), the selective ERβ agonist 8β-Vinyl-estra-1,3,5(10)-trien-3,17β-diol (or 17β-Fluor-9α-vinyl-estra-1,3,5(10)-trien-3,16α-diol, respectively 30 μg/kg body weight) or placebo. All animals had free access to standard rat chow and water. E2, 3,17β-Dihydroxy-19-nor-17α-pregna-1,3,5(10)-triene-21,16α-lactone and 8β-Vinyl-estra-1,3,5(10)-trien-3,17β-diol (or 17β-Fluor-9α-vinyl-estra-1,3,5(10)-trien-3,16α-diol) were dissolved in ethanol and injected daily using peanut oil as a carrier substance, placebo animals received ethanol/peanut oil alone. After 4 weeks treatment hemodynamic parameters were measured as described previously (Fraccarollo D, Hu K, Galuppo P, Gaudron P, Ertl G. (1997), Circulation. 1997;96:3963-3973) and animals were euthanized. The following parameters were determined: Systolic, diastolic, mean blood pressure; left ventricular ejection fraction; systolic and diastolic left ventricular pressure as well as the velocity of pressure increase and decrease in the left ventricle; cardiac output, cardiac index, heart rate; systemic vascular resistance. All measurements were performed at rest under isofluran anesthesia. Values are expressed as mean±SEM of parameters from different animals. Statistical analysis was performed by one-way analysis of variance (ANOVA) followed by a post hoc Bonferroni test. P values <0.05 were considered statistically significant.

The test system is the same in assay [3]. Briefly: Cardiac hypertrophy (heart weight) in ovariectomized SHR. It counts as in vivo, rat. The conditions noted are these: ovx SHR, 4 weeks daily sc; 30 μg/kg/d (estradiol 2 μg/kg/d), compared to placebo treated rats; FIG. 6. An excerpt:
The effects of the ERβ-agonists on blood pressure (BP) in ovariectomized SHR, a widely accepted animal model of hypertensive heart disease, were investigated in three independent studies. Estradiol and the steroidal ERα agonist 3,17β-Dihydroxy-19-nor-17α-pregna-1,3,5(10)-triene-21,16α-lactone were used as references. Female spontaneously hypertensive rats (SHR-Nico; 12 weeks old; Charles River Laboratories) were used for the experiment. All animals were kept under standard conditions (eg 12 hr ON/OFF light cycle, commercial diet and water ad libitum). Animals were randomly assigned to different treatment groups as outlined below. All animals were marked individually by ear tag. Female rats (SHR; 12 weeks old) were ovarectomized (ovx) and treated for 4 weeks starting one day after ovx according to the protocol outlined below. All compounds were injected daily using ethanol (EtOH)/peanut oil 4+1 as the vehicle. [table] […] After 4 weeks treatment hemodynamic parameters were measured as described previously (Fraccarollo D, Hu K, Galuppo P, Gaudron P, Ertl G. (1997), Circulation. 1997;96:3963-3973) and animals were euthanized. Cardiac hypertrophy in all animals was determined by measuring total heart weight and subsequent normalization to tibia length. Values are expressed as mean±SEM of parameters from different animals. […]

Assay [4] deals with uterus (indicator of classical ERα-mediated estrogen action). Briefly: Uterus fresh weight in ovariectomized SHR. The format is in vivo, rat. The conditions noted are these: ovx SHR, daily sc injection for 4 weeks; 30 μg/kg/d (estradiol 2 μg/kg/d); FIG. 1. An excerpt:
(§1) The effects of the ERβ-agonists on blood pressure (BP) in ovariectomized SHR, a widely accepted animal model of hypertensive heart disease, were investigated in three independent studies. Estradiol and the steroidal ERα agonist 3,17β-Dihydroxy-19-nor-17α-pregna-1,3,5(10)-triene-21,16α-lactone were used as references. Female spontaneously hypertensive rats (SHR-Nico; 12 weeks old; Charles River Laboratories) were used for the experiment. All animals were kept under standard conditions (eg 12 hr ON/OFF light cycle, commercial diet and water ad libitum). Animals were randomly assigned to different treatment groups as outlined below. All animals were marked individually by ear tag. Female rats (SHR; 12 weeks old) were ovarectomized (ovx) and treated for 4 weeks starting one day after ovx according to the protocol outlined below. All compounds were injected daily using ethanol (EtOH)/peanut oil 4+1 as the vehicle. [table] 12 weeks old female SHR (Charles River™) were ovariectomized or sham-operated. […] After 4 weeks treatment hemodynamic parameters were measured as described previously (Fraccarollo D, Hu K, Galuppo P, Gaudron P, Ertl G. (1997), Circulation. 1997;96:3963-3973) and animals were euthanized. Uterus fresh weight was measured as an indicator of classical ERα-mediated estrogen action.

Assay [5] can be described thus: Body weight of ovariectomized SHR. The format is in vivo, rat. To be noted: daily sc injection for 4 weeks, 30 μg/kg/d (estradiol 2 μg/kg/d), FIG. 2.
Text: as §1, with “euthanized.” for “euthanized. Uterus fresh weight was measured as an indicator of classical ERα-mediated estrogen action.”

The mark [6] stands for this setting: ovx (estradiol-deficient) SHR, 30 μg/kg/d sc for 4 weeks.

“Also recorded” adds a separate entry of the source.

T1 sequence (Q62986 whole entry): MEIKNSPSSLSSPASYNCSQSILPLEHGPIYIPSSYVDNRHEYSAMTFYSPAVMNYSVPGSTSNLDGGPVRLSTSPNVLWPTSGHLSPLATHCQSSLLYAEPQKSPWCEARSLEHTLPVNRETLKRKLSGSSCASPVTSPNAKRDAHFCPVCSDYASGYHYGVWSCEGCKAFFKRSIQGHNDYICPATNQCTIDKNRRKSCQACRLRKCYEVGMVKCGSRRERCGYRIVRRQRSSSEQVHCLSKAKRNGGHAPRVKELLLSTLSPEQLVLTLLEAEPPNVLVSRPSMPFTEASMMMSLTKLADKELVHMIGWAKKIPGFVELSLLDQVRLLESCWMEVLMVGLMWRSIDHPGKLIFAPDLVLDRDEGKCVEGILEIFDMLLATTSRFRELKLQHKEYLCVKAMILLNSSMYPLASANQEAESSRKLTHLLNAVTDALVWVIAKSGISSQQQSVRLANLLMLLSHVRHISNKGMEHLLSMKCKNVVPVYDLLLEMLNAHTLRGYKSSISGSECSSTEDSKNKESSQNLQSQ

Consider `C=C[C@]12CC[C@]3(C)[C@@H](F)[C@H](O)C[C@H]3[C@@H]1CCc1cc(O)ccc12` [17β-Fluor-9α-vinyl-estra-1,3,5(10)-trien-3,16α-diol], for which, in assay [1], the “binding affinity to rat prostate estrogen receptor compared to rat uterus estrogen receptor” value is “higher binding affinity to the rat prostate compared to rat uterus estrogen receptor”. Besides, the “affinity to human ERβ compared to ERα” value on human ERβ was “higher affinity to human ERβ compared to ERα”. Moreover, the cardiac output entry in assay [2] (setting [6]) is reported as “significant improvement of cardiac output; also recorded: increase cardiac output”. Besides, the blood pressure entry in assay [2] (30 μg/kg/d sc for 4 weeks) is “significant reduction of systolic as well as diastolic blood pressure; also recorded: lower systolic, mean and diastolic blood pressure”. Besides, in assay [2], the “effectiveness in lowering blood pressure relative to estradiol and the ERα agonist” value was “more effective”. Also, in assay [3], the “cardiac hypertrophy (heart weight)” value is “significantly inhibited; also recorded: prevent the development of cardiac hypertrophy”.

Take `C=C[C@@]12CCc3cc(O)ccc3[C@H]1CC[C@@]1(C)[C@H]2CC[C@@H]1O` [8β-Vinyl-estra-1,3,5(10)-trien-3,17β-diol]: the “binding affinity to rat prostate estrogen receptor compared to rat uterus estrogen receptor” value in assay [1] is “higher binding affinity to the rat prostate compared to rat uterus estrogen receptor”. The “affinity to human ERβ compared to ERα” value on human ERβ is “higher affinity to human ERβ compared to ERα”. For the same compound, the “stimulation of uterine growth (uterine weight)” value in assay [4] was “did neither cause stimulation of uterine growth”. Also, the “effect on ovx-induced adipose phenotype (body weight)” value in assay [5] is “nor affect the ovx-induced adipose phenotype”. For the same compound, in assay [2] (setting [6]), the cardiac index result is “augmented” and the cardiac output result was “significant improvement of cardiac output; also recorded: increase cardiac output; also recorded: augmented”. Also, in assay [2] (ovx (estradiol-deficient) SHR, 30 μg/kg/d sc for 4 weeks, FIG. 5), the left-ventricular stroke volume result is on record as “augmented”. Also, the blood pressure entry in assay [2] (30 μg/kg/d sc for 4 weeks) was “significant reduction of systolic as well as diastolic blood pressure; also recorded: lower systolic, mean and diastolic blood pressure; also recorded: lowered blood pressure levels”. In addition, the “effectiveness in lowering blood pressure relative to estradiol and the ERα agonist” value in assay [2] is “more effective”. Besides, the “cardiac hypertrophy (heart weight)” value in assay [3] is “significantly inhibited; also recorded: prevent the development of cardiac hypertrophy; also recorded: inhibitory effect on cardiac hyperthrophy as indicated by a reduction in heart weight”.

For the origin of these results see US20050148560A1, “Prevention and treatment of hypertensive heart diseases by the selective estrogens 8beta-vinyl-estra-1,3,5(10)-trien-3,17beta-diol and 17beta-fluor-9alpha-vinyl-estra-1,3,5(10)-trien-3,16alpha-diol” (priority 2003, published 2005).
